The record followed here is article PMC6804006, “Synthesis, Biological Activities and Docking Studies of Novel 4-(Arylaminomethyl)benzamide Derivatives as Potential Tyrosine Kinase Inhibitors” (Molecules, 2019).

One series has as its target T1, EGFR (Homo sapiens, UniProt P00533).
T1 construct: purchased Promega
The experiment in a line: ADP-Glo kinase inhibitory assay, EGFR. Particulars: for inhibition at 0.01 µM: read-out: % Inhibition at 10 nM, EGFR. In kind it is biochemical. The procedure: (§1) We investigated the kinase selectivity of targeted compounds against eight receptor tyrosine kinases including EGFR (epidermal growth factor receptor), HER-2 and HER4 (human epidermal growth factor receptor), IGF1R (insulin like growth factor 1 receptor), InsR (gene insulin receptor), KDR (kinase insert domain receptor), and PDGFRa and PDGFRb (platelet-derived growth factor receptors). The assay was performed using the Kinase-Glo Plus luminescence kinase assay kit (TK-1+ADP-Glo™, Promega, San Diego, CA, USA). It measures kinase activity by quantitating the amount of ATP remaining in solution following a kinase reaction.
(§2) The assay was performed using a Kinase Selectivity Profiling System (TK-1+ADP-Glo™ Assay and TK-2+ADP-Glo™ Assay, Promega), where the kinase activity was measured by quantifying the amount of ADP produced during a kinase reaction. The assay is performed in two steps; firstly, after the kinase reaction, an equal volume of ADP-Glo™ Reagent is added to terminate the kinase reaction and deplete the remaining ATP. Secondly, the Kinase Detection Reagent is added to simultaneously convert ADP to ATP and allow the newly synthesized ATP to be measured using a luciferase/luciferin reaction. The luminescent signal generated is proportional to the ADP concentration produced and is correlated with kinase activity. Our compounds were diluted with kinase buffer (5% DMSO), and 1 μL of the dilution was added to a 5-μL reaction so that the final concentration of DMSO was 1% in all of reactions. All of the enzymatic reactions were conducted at 23 °C for 60 min. The 5-μL reaction mixture contained 1µL of the compound solution, 2µL of the enzyme solution, and 2 µL of kinase substrate. After the enzymatic reaction, 5 µL of ADP-Glo™ Reagent (Promega, USA) was added to each reaction, and the plate was incubated for 40 min at 23 °C. Then, 10 µL of Kinase Detection Reagent (Promega, USA) was added to each reaction, and the plate was incubated for 30 min at 23 °C. Luminescence signal was measured using an Infinite M 200 plate reader (Tecan, Switzerland).
(§3) Kinase activity assays were performed in duplicate at each concentration. The luminescence data were analyzed using the computer software, Magellan™. The difference between luminescence intensities in the absence of Kinase (Lut) and in the presence of Kinase (Luc) was defined as 100% activity (Lut − Luc).
For orientation: ADP-Glo first removes unused ATP, then detects ADP through luciferase.

The target of a further series is T2, HER-2 (Homo sapiens, UniProt P04626).
T2 construct: purchased Promega
The series is described as follows: ADP-Glo kinase inhibitory assay, HER-2. In kind it is biochemical. Particulars: for inhibition at 0.01 µM: read-out: % Inhibition at 10 nM, HER-2. How it is done:
as §1, §2, §3

For the next series, the target named is T3, HER-4 (Homo sapiens, UniProt Q15303).
T3 construct: purchased Promega
The series is described as follows: ADP-Glo kinase inhibitory assay, HER-4. It is filed as biochemical. Particulars: for inhibitory activity in relation to HER-4, in words: compared with imatinib; for inhibition at 0.01 µM: read-out: % Inhibition at 10 nM, HER-4. The procedure:
as §1, §2, §3

Another series concerns the target T4, IGF1R (Homo sapiens, UniProt P08069).
T4 construct: purchased Promega
The experiment in a line: ADP-Glo kinase inhibitory assay, IGF1R. In kind it is biochemical. Particulars: for inhibition at 0.01 µM: read-out: % Inhibition at 10 nM, IGF1R. How it is done:
as §1, §2, §3

The next series concerns the target T5, InsR (Homo sapiens, UniProt P06213).
T5 construct: purchased Promega
The series is described as follows: ADP-Glo kinase inhibitory assay, InsR. It is filed as biochemical. Particulars: for inhibition at 0.01 µM: read-out: % Inhibition at 10 nM, InsR. How it is done:
as §1, §2, §3

Another series concerns the target T6, KDR (VEGFR2) (Homo sapiens, UniProt P35968).
T6 construct: purchased Promega
The experiment in a line: ADP-Glo kinase inhibitory assay, KDR. In kind it is biochemical. Particulars: for inhibition at 0.01 µM: 10 nM. The procedure:
as §1
Vascular endothelial growth factor receptor 2 (VEGFR2), also called kinase insert domain receptor (KDR), is a tyrosine kinase receptor for VEGFs that plays a central role in tumor angiogenesis; therefore, the inhibition of VEGFR2 is a promising therapeutic strategy for inhibiting angiogenesis and tumor growth.
as §2, §3

A further series concerns the target T7, PDGFRa (Homo sapiens, UniProt P16234).
T7 construct: purchased Promega
The series is described as follows: ADP-Glo kinase inhibitory assay, PDGFRa. In kind it is biochemical. Particulars: for inhibition at 0.01 µM: read-out: % Inhibition at 10 nM, PDGFRa. How it is done:
as §1, §2, §3

The target in another series is T8, PDGFRb (Homo sapiens, UniProt P09619).
T8 construct: purchased Promega
T8 sequence (P09619 33-1106): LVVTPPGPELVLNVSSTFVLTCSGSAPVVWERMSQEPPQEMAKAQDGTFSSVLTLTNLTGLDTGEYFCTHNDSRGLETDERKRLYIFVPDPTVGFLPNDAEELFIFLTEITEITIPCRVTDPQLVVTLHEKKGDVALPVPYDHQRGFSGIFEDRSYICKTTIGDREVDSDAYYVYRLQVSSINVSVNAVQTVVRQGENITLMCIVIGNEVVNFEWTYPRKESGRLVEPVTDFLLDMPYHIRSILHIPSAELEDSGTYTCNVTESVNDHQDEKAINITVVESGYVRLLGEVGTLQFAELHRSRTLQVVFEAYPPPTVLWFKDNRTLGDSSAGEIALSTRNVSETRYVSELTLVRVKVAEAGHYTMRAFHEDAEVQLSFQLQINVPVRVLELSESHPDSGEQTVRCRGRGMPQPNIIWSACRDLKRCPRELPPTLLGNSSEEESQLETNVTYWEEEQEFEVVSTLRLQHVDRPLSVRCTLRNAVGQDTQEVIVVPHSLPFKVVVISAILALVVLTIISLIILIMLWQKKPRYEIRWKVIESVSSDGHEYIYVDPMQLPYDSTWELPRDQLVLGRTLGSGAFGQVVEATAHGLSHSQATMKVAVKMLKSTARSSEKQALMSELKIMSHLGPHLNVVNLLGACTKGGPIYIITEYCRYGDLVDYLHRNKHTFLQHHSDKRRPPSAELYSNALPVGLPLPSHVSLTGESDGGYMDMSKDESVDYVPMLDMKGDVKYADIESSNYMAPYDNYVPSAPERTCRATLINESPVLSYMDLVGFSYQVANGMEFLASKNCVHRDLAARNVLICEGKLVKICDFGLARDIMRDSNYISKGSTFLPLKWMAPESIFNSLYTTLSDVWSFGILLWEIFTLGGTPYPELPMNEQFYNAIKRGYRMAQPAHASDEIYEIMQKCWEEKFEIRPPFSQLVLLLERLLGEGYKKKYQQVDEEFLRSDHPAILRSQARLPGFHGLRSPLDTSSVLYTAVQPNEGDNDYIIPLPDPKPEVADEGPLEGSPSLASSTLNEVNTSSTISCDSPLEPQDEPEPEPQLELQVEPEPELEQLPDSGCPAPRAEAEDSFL
The series is described as follows: ADP-Glo kinase inhibitory assay, PDGFRb. It is filed as biochemical. Particulars: for inhibition at 0.01 µM: read-out: % Inhibition at 10 nM, PDGFRb. How it is done: as §1, §2, §3

T6 sequence (P35968 20-1356): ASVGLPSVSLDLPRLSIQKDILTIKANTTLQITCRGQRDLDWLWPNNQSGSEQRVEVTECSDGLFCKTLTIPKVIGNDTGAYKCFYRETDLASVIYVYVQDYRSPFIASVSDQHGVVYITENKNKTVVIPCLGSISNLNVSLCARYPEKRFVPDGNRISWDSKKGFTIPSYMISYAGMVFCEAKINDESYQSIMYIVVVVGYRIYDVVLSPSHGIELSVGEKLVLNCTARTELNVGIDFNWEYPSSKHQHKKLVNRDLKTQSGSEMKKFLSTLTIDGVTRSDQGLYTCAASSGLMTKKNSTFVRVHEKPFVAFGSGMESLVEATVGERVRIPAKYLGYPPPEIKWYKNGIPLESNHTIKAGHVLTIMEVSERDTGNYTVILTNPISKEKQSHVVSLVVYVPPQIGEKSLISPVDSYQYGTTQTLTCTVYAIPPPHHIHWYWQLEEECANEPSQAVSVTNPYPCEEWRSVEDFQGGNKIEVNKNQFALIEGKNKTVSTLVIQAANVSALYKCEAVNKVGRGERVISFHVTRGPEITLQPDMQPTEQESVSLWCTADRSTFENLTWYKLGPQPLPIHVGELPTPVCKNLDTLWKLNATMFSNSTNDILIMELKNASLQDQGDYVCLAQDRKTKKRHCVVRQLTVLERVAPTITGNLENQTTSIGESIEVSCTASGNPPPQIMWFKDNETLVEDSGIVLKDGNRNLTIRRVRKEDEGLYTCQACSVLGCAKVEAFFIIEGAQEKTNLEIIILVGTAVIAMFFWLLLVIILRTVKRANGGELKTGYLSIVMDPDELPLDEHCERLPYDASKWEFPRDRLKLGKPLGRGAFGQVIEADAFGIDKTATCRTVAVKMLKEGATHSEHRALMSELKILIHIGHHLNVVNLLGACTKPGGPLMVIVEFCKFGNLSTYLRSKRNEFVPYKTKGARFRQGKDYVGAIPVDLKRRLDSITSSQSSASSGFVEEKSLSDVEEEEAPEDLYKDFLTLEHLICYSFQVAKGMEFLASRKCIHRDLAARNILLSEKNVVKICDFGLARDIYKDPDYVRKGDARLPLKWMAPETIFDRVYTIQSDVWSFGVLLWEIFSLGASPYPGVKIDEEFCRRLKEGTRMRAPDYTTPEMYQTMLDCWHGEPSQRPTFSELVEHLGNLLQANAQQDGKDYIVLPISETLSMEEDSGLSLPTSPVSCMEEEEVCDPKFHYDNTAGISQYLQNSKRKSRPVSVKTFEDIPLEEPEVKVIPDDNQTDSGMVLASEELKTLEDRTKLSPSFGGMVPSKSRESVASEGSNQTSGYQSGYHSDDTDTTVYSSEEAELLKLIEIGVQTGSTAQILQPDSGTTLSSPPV
T7 sequence (P16234 24-1089): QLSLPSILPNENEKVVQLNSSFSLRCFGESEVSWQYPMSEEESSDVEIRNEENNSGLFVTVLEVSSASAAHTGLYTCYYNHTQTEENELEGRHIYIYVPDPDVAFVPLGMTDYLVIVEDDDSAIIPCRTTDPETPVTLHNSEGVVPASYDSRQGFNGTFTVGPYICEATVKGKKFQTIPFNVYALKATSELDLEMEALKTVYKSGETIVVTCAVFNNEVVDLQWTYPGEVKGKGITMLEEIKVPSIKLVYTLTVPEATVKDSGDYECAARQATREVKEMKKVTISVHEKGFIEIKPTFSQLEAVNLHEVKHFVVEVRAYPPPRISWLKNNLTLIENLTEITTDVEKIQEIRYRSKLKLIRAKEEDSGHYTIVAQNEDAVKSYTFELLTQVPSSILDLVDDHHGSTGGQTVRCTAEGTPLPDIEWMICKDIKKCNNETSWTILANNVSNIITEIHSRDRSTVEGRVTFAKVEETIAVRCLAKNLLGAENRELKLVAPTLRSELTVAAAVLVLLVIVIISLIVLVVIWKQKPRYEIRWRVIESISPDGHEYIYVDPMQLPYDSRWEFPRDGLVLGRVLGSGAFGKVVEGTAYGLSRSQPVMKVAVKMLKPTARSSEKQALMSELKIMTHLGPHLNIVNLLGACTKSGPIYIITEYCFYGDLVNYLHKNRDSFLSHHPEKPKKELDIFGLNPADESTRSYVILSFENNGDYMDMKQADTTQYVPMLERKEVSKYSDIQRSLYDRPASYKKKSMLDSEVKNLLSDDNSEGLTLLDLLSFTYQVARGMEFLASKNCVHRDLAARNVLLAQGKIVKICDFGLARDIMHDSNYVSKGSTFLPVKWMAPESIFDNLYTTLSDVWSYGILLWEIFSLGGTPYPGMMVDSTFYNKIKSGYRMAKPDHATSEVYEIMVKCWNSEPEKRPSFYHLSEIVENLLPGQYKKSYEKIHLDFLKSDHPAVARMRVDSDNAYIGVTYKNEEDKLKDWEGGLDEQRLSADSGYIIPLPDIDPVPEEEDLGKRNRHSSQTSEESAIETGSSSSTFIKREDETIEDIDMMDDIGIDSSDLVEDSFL
T5 sequence (P06213 28-1382): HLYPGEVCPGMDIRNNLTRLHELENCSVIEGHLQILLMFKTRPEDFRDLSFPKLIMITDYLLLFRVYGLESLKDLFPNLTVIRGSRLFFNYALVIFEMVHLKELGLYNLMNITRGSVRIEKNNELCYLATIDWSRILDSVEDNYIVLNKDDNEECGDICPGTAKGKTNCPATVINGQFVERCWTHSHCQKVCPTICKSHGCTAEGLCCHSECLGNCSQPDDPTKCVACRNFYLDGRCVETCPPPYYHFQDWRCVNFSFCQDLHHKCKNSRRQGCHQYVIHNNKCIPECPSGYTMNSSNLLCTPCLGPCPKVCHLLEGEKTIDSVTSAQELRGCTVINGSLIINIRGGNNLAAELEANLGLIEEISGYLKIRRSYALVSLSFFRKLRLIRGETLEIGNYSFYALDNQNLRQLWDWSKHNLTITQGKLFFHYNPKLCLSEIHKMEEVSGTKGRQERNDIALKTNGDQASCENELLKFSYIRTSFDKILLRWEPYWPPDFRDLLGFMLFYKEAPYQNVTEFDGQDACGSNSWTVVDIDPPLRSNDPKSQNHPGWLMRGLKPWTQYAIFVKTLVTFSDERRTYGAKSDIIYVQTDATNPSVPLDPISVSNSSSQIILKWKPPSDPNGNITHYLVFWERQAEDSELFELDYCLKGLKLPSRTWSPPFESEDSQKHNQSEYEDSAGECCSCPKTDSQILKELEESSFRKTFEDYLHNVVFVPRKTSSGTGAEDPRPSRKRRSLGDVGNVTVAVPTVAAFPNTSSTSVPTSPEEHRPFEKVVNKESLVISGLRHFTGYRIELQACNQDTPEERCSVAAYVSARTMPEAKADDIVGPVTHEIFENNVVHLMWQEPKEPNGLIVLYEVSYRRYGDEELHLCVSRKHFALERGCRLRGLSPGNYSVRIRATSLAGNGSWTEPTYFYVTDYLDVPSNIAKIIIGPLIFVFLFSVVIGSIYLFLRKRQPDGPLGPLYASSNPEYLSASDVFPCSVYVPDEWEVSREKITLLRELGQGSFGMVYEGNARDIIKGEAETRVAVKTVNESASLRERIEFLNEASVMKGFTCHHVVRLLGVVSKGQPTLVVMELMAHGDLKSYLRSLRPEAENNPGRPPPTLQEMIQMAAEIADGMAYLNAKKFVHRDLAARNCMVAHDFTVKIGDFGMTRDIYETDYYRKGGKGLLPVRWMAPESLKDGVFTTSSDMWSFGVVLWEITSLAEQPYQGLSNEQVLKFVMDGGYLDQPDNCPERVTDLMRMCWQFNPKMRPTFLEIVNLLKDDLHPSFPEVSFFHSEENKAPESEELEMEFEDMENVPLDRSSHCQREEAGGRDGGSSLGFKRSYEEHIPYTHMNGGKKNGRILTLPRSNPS

Usually melting point stands for the temperature, or range, at which the solid turns liquid. In the case of `CCOC(=O)CC[C@H](NC(=O)c1ccc(CNc2cc([N+](=O)[O-])ccc2C)cc1)C(=O)OCC` [Compound 16, Diethyl (4-(((2-methyl-5-nitrophenyl)amino)methyl)benzoyl)glutamate], the melting point is 127 to 129 °C.

As for `Cc1ccc([N+](=O)[O-])cc1NC(=O)c1ccc(CNc2nccc(-c3cccnc3)n2)cc1` [Compound 25, 4-({[4-(Pyridin-3-yl)pyrimidin-2-yl]amino}methyl)-N-{[(2-methyl-5-nitrophenyl) benzoate], the melting point lay in the range of 175 to 176 °C.

One may read the % Inhibition as the change of the read-out against control, counted positive when it falls. Read a low % Inhibition as a response near the control. As for “N-(3-(4-methyl-1H-imidazol-1-yl)-5-(trifluoromethyl)phenyl)-4-(((4-(pyridin-2-yl)pyrimidin-2-yl)amino)methyl)benzamide [Compound 22]”, at EGFR (10 nM), the “% Inhibition at 10 nM, EGFR” value was found to be 21%. For the same compound, the “% Inhibition at 10 nM, HER-2” value at HER-2 (10 nM) was found to be 0%. Besides, on HER-4 (10 nM), the “% Inhibition at 10 nM, HER-4” value amounted to 49% and the “inhibitory activity in relation to HER-4, in words” value (“inhibitory activity in relation” for short) is “comparable to imatinib”. Besides, on IGF1R (10 nM), the “% Inhibition at 10 nM, IGF1R” value is 0%. On InsR (10 nM), the “% Inhibition at 10 nM, InsR” value was determined as 0%. The “% Inhibition at 10 nM, KDR” value at KDR (VEGFR2) is reported as 28%. Moreover, the “% Inhibition at 10 nM, PDGFRa” value on PDGFRa (10 nM) came out at 0%. In addition, on PDGFRb (10 nM), the “% Inhibition at 10 nM, PDGFRb” value is reported as 0%.

By inhibition is commonly meant the percentage by which the read-out fell short of the control. Consider `Cc1ccc([N+](=O)[O-])cc1NCc1ccc(C(=O)Nc2cccc(C(F)(F)F)c2)cc1` [Compound 18, 4-{[(2-Methyl-5-nitrophenyl)amino]methyl}-N-[3-(trifluoromethyl)phenyl]benzamide], for which the melting point is 169 to 171 °C. Besides, the inhibition at 0.01 µM at EGFR stood at 0%. For the same compound, the inhibition at 0.01 µM on HER-2 worked out at 14%. Besides, at HER-4 (10 nM), the “inhibitory activity in relation” value is given as “comparable to imatinib”. Besides, the inhibition at 0.01 µM on HER-4 stood at 56%. The inhibition at 0.01 µM on IGF1R was 0%. Besides, at InsR, the inhibition at 0.01 µM was 0%. Besides, the inhibition at 0.01 µM at KDR (VEGFR2) was 24%. In addition, the inhibition at 0.01 µM at PDGFRa worked out at 67%. Besides, the inhibition at 0.01 µM on PDGFRb was 13%.

For `CNC(=O)c1cc(Oc2ccc(NC(=O)c3ccc(CNc4cc([N+](=O)[O-])ccc4C)cc3)cc2)ccn1` [Compound 17, 4-{[(2-Methyl-5-nitrophenyl)amino]methyl}-N-(4-{[2-(methylcarbamoyl)pyridin-4-yl]oxy}phenyl) benzoate], the melting point was 231 to 233 °C. Also, the inhibition at 0.01 µM on EGFR is 0%. The inhibition at 0.01 µM on HER-2 came out at 0%. Also, the inhibition at 0.01 µM at HER-4 is 0%. Moreover, on IGF1R, the inhibition at 0.01 µM was found to be 0%. Besides, at InsR (10 nM, panel of eight receptor tyrosine kinases), the “selectivity for the gene insulin receptor, in words” value is listed as “high selectivity”. Moreover, the inhibition at 0.01 µM at InsR came out at 49%. Testing at 0.01 µM on KDR (VEGFR2) gave an inhibition of 0%. The inhibition at 0.01 µM on PDGFRa worked out at 0%. Further, the inhibition at 0.01 µM at PDGFRb amounted to 0%.

The compound `CNC(=O)c1cc(Oc2ccc(NCc3ccc(C(=O)Nc4cccc(C(F)(F)F)c4)cc3)cc2)ccn1` [Compound 20, 4-{[(4-{[2-(Methylcarbamoyl)pyridin-4-yl]oxy}phenyl)amino]methyl}-N-[3-(trifluoromethyl)phenyl]benzamide] gave a melting point of 170 to 171 °C. In addition, the inhibition at 0.01 µM on EGFR came to 56%. Besides, on HER-2, the inhibition at 0.01 µM came out at 0%. The “inhibitory activity in relation” value against HER-4 (10 nM) is “comparable to imatinib”. In addition, on HER-4, the inhibition at 0.01 µM was found to be 57%. For the same compound, the inhibition at 0.01 µM at IGF1R came out at 18%. The inhibition at 0.01 µM at InsR was 0%. Besides, on KDR (VEGFR2), the inhibition at 0.01 µM came out at 48%. Also, the inhibition at 0.01 µM on PDGFRa worked out at 77%. The inhibition at 0.01 µM at PDGFRb was 28%.

In the case of `CCOC(=O)CC[C@H](NC(=O)c1ccc(CNc2ccc(Oc3ccnc(C(=O)NC)c3)cc2)cc1)C(=O)OCC` [Compound 21, Diethyl (4-(((4-((2-(methylcarbamoyl)pyridin-4-yl)oxy)phenyl)amino)methyl)benzoyl)glutamate], the melting point fell in the range of 162 to 164 °C.
